Test results as given in PubChem BioAssay AID1794811.

Biological target: High affinity choline transporter 1 (Homo sapiens) (UniProt Q9GZV3)
Experiment: PubChem AID 1794811
Details: HEK-293 JumpIN-SLC5A7, FLIPR membrane potential dye

Sequence of High affinity choline transporter 1 (Homo sapiens) (Q9GZV3 whole entry, looked up): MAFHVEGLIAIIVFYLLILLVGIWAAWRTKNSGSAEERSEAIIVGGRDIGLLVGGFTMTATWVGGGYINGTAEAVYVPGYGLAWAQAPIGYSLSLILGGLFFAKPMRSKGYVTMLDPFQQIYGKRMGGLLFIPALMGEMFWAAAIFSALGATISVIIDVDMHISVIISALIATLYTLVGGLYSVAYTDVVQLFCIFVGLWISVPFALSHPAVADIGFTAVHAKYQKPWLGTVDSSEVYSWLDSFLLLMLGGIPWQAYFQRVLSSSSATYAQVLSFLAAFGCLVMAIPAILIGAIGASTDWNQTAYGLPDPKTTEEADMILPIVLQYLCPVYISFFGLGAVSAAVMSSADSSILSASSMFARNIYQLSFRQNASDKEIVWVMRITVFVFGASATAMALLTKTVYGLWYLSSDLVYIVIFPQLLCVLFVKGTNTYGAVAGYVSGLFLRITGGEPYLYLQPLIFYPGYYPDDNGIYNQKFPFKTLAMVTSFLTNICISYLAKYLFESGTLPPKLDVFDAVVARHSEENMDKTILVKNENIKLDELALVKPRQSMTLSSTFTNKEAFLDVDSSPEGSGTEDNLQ

EC50: 17 µM
Structure (SMILES): C[N+](C)(C)CCO
